From paper PMC6426682 (ACS chemical neuroscience, 2018)

What was measured:
CB1 receptor [1] = target: T1, CB1 receptor (Mus musculus, UniProt P47746); assay: [3H]SR141716 equilibrium radioligand binding; details: for remaining activity at 32 µM: 1.5 h, read-out: %[3H]SR141716 Binding ± S.E.; for effect on [3H]SR141716 binding (in words): 1 nM [3H]SR141716
human CB1 receptor = human CB1 receptor (Homo sapiens, UniProt P21554); assay: CB1 calcium mobilization assay; type: cell-based; details: for IC50: CB1 Calcium assay IC50, against EC80 (100 nM) of CP55,940 in stable human CB1-CHO-RD-HGA16 cells, mean ± SEM; for fold reduction in potency compared to 1, CB1 calcium assay: relative to 1
CB1 receptor [2] = target: T1, CB1 receptor; assay: Agonist-stimulated [35S]GTP-γ-S binding assay in mouse cerebellar membranes; type: biochemical
CB1 receptor [3] = target: T1, CB1 receptor; assay: [3H]CP55,940 equilibrium radioligand binding; details: for [3H]CP55,940 Curve-fit top ± S.E.: mouse cerebellar membranes
[4] = target: uncoupled low affinity receptor (CB1); details: read-out: Ki for the uncoupled low affinity receptor; cited from earlier work
rats = details: cited from earlier work
[5] = cited from earlier work
CB1 receptor [6] = target: T1, CB1 receptor; assay: [3H]CP55,940 saturation binding in presence of allosteric modulator; details: Bmax of the radioligand at 10 μM of test compound; vehicle 1.56 ± 0.09
[7] = in vivo; cited from earlier work

human CB1 receptor, sequence (P21554 whole entry): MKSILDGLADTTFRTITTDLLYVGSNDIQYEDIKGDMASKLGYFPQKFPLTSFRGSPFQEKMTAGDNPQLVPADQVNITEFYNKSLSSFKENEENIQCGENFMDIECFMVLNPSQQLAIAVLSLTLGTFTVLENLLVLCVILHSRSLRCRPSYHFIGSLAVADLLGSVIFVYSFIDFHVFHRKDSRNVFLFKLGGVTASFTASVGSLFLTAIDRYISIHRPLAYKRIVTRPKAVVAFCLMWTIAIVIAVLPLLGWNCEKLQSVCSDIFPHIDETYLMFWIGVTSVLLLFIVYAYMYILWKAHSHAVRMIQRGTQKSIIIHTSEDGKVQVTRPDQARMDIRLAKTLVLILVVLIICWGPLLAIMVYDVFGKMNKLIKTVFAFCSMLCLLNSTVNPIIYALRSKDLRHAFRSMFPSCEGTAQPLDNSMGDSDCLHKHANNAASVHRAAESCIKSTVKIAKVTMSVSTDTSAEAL
T1 sequence (P47746 whole entry): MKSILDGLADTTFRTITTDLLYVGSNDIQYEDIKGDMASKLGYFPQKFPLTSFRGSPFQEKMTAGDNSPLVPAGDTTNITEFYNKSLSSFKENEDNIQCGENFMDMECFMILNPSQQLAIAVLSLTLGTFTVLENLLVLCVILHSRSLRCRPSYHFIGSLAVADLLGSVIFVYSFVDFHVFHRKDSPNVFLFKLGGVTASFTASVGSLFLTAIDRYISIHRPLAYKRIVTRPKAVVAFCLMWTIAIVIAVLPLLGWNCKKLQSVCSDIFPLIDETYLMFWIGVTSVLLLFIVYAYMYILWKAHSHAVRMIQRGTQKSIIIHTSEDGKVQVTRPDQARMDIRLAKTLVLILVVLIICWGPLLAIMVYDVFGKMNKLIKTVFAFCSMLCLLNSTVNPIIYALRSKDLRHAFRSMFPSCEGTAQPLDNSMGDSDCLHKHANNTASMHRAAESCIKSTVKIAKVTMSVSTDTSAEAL

Compound | IC50 (CB1 receptor [1]) [µM] | remaining activity at 32 µM (CB1 receptor [1]) [%] | EC50 (CB1 receptor [3]) [µM] | [3H]CP55,940 Curve-fit top ± S.E. (CB1 receptor [3]; 1 nM [3H]CP55,940) | [3H]CP55,940 Bmax ± S.E. (CB1 receptor [6]) [pmol/mg] | other results
CC(C)(C)OC(=O)n1cccc1-c1cccc(NC(=O)Nc2ccc(Cl)cc2)c1 [Compound 15] | 8.51 | 17.2 ± 4.12 | 14.8 | 15.5 ± 24.12 | – | IC50 (human CB1 receptor): 3.44 ± 0.451 µM; IC50 (CB1 receptor [2]): 3.24 µM; effect on [3H]CP55,940 binding (in words) (CB1 receptor [3]; 1 nM [3H]CP55,940): significantly decreased the binding of the radioligand
CCCCCCC(C)(C)c1ccc([C@@H]2C[C@H](O)CC[C@H]2CCCO)c(O)c1 [CP55,940] | – | – | – | – | – | Ki [4]: ~0.1 µM
O=C(Nc1ccc(Cl)cc1)Nc1cccc(-c2cccs2)c1 [Compound 10, 3‐(4‐Chlorophenyl)‐1‐[3‐(thiophen‐2‐yl)phenyl]urea] | 28.8 | 45.54 ± 0.15 | 5.75 | 199.8 ± 8.78 | – | –
O=C(Nc1ccc(Cl)cc1)Nc1cccc(-c2ccsc2)c1 [Compound 9, 3‐(4‐Chlorophenyl)‐1‐[3‐(thiophen‐3‐yl)phenyl]urea] | 11.2 | 20.4 ± 2.13 | 4.57 | 264.6 ± 9.81 | – | –
O=C(Nc1ccc(Cl)cc1)Nc1cccc(-c2cccc(N3CCCC3)n2)c1 [Compound 1, 1-(4-Chlorophenyl)-3-{3-[6-(pyrrolidin-1-yl)pyridin-2-yl]phenyl}urea, reference compound] | 12.3 | 20.4 ± 3.05 | 2.04 | – | 4.53 ± 0.29 | prime-induced reinstatement of extinguished cocaine-seeking behavior (rats): attenuated prime-induced reinstatement of extinguished cocaine-seeking behavior in rats; tetrahydrocannabinol-induced anti-nociception [5]: attenuated tetrahydrocannabinol-induced anti-nociception; food intake and body weight [7]: demonstrated efficacy in reducing food intake and body weight; [3H]CP55,940 maximum binding level (CB1 receptor [3]; 1 nM [3H]CP55,940): 256%; Emax (CB1 receptor [3]; 1.5 h, read-out: [3H]CP55,940 Curve-fit top ± S.E.): 256 ± 5.59%
O=C(Nc1ccc(Cl)cc1)Nc1cccc(-c2ccoc2)c1 [Compound 8, 3‐(4‐Chlorophenyl)‐1‐[3‐(furan‐3‐yl)phenyl]urea] | 17.4 | 34.9 ± 2.43 | 7.41 | 174.1 ± 8.86 | 3.22 ± 0.19 | fold less potent than 1 in the GTP-γ-S assay (CB1 receptor [2]; relative to 1): ~ 4 fold
O=C(Nc1ccc(Cl)cc1)Nc1cccc(-c2nccs2)c1 [Compound 18, 3‐(4‐Chlorophenyl)‐1‐[3‐(1,3‐thiazol‐2‐yl)phenyl]urea] | 16.6 | 37.7 ± 0.76 | 5.13 | 134.2 ± 4.47 | – | –
O=C(Nc1ccc(Cl)cc1)Nc1cccc(-c2cscn2)c1 [Compound 16, 3‐(4‐Chlorophenyl)‐1‐[3‐(1,3‐thiazol‐4‐yl)phenyl]urea] | 25.7 | 44.3 ± 1.42 | 10.7 | 224.2 ± 15.85 | – | –
Cc1cc(-c2cccc(NC(=O)Nc3ccc(Cl)cc3)c2)cs1 [Compound 11, 3‐(4‐Chlorophenyl)‐1‐[3‐(5‐methylthiophen‐3‐yl)phenyl]urea] | 83.2 | 73.2 ± 5.77 | 3.89 | 226.0 ± 5.82 | 3.64 ± 0.17 | effect on [3H]SR141716 binding (in words) (CB1 receptor [1]): only exhibited a slight reduction in [^3H]SR141716 binding; fold reduction in inhibitory potency on introduction of a methyl group, GTP-γ-S assay (CB1 receptor [2]; relative to the 3-thiophenyl analogue (9)): 5 fold
O=C(Nc1ccc(Cl)cc1)Nc1cccc(-c2ccc[nH]2)c1 [Compound 13, 3‐(4‐Chlorophenyl)‐1‐[3‐(1H‐pyrrol‐2‐yl)phenyl]urea] | 14.1 | 26.6 ± 5.68 | 1.38 | 458.3 ± 16.25 | 5.87 ± 0.15 | IC50 (human CB1 receptor): 0.165 to 0.169 µM; fold reduction in potency compared to 1, CB1 calcium assay (human CB1 receptor): about 3 fold; [3H]CP55,940 maximum binding level (CB1 receptor [3]; 1 nM [3H]CP55,940): 458%; fold increase of [3H]CP55,940 binding level compared to 1 (CB1 receptor [3]; relative to 1): more than 2 fold
Cn1cccc1-c1cccc(NC(=O)Nc2ccc(Cl)cc2)c1 [Compound 14, 3‐(4‐Chlorophenyl)‐1‐[3‐(1‐methyl‐1H‐pyrrol‐2‐yl)phenyl]urea] | 17.8 | 41.4 ± 3.26 | 5.62 | 164.5 ± 8.61 | – | IC50 (human CB1 receptor): 0.165 to 0.169 µM; fold reduction in potency compared to 1, CB1 calcium assay (human CB1 receptor): about 3 fold
Cc1ccc(-c2cccc(NC(=O)Nc3ccc(Cl)cc3)c2)s1 [Compound 12, 3‐(4‐Chlorophenyl)‐1‐[3‐(5‐methylthiophen‐2‐yl)phenyl]urea] | 22.9 | 86.9 ± 5.87 | 13.2 | 233.3 ± 20.53 | – | effect on [3H]SR141716 binding (in words) (CB1 receptor [1]): only exhibited a slight reduction in [^3H]SR141716 binding
O=C(Nc1ccc(Cl)cc1)Nc1cccc(-c2ncc[nH]2)c1 [Compound 19, 3‐(4‐Chlorophenyl)‐1‐[3‐(1H‐imidazol‐2‐yl)phenyl]urea] | 123 | 34.8 ± 8.94 | 10.2 | 355.7 ± 27.39 | – | fold reduction in potency compared to 1, CB1 calcium assay (human CB1 receptor): around 16 fold; [3H]CP55,940 maximum binding level (CB1 receptor [3]; 1 nM [3H]CP55,940): 355%
O=C(Nc1ccc(Cl)cc1)Nc1cccc(-c2cncs2)c1 [Compound 17, 3‐(4‐Chlorophenyl)‐1‐[3‐(1,3‐thiazol‐5‐yl)phenyl]urea] | 2.95 | 50.6 ± 2.04 | 6.46 | 181.2 ± 8.15 | 3.57 ± 0.25 | –
